Molecules are shown by their SMILES.

This experiment deals with T1, Calpain-1 catalytic subunit (Homo sapiens, UniProt P07384).
T1 sequence (P07384 whole entry): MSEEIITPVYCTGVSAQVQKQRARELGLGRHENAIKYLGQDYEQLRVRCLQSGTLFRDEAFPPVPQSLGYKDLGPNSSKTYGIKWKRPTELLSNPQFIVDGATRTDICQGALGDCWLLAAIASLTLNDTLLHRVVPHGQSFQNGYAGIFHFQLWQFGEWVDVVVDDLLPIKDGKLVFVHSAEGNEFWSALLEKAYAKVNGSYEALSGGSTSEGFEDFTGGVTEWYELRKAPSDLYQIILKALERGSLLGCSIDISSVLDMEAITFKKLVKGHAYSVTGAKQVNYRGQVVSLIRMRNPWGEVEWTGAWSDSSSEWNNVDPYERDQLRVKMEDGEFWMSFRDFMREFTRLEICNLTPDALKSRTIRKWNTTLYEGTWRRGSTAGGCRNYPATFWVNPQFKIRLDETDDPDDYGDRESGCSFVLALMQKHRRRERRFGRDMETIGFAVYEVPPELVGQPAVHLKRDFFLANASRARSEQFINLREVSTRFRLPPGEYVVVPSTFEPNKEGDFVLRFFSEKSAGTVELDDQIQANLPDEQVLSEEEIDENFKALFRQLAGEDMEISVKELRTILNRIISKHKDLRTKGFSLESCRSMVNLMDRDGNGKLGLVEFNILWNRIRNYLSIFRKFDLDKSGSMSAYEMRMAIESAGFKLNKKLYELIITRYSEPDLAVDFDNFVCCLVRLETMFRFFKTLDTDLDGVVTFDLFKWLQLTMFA
Description: Inhibition of human erythrocytes mu-calpain by spectrofluorimeter.
Compound `CNC(=O)C(=O)[C@H](Cc1ccccc1)NC(=O)c1[nH]c(=O)ccc1C` displayed a half-inhibitory concentration (IC50) of 91.4 µM.

The compound `CCNC(=O)C(=O)[C@H](Cc1ccccc1)NC(=O)c1[nH]c(=O)ccc1C` returned a 50% inhibitory concentration (IC50) of 40.2 µM.

With `Cc1ccc(=O)[nH]c1C(=O)N[C@@H](Cc1ccccc1)C(=O)C(=O)NC(C)C`, the IC50 was above 100 µM.

In the case of `Cc1ccc(=O)[nH]c1C(=O)N[C@@H](Cc1ccccc1)C(=O)C(=O)NCc1ccccc1`, the IC50 was 64.6 µM.

For the compound `Cc1ccc(=O)[nH]c1C(=O)N[C@@H](Cc1ccccc1)C(=O)C(=O)NCc1ccc(F)cc1`, the midpoint of inhibition, the IC50, lay at 22.1 µM.

`Cc1ccc(=O)[nH]c1C(=O)N[C@@H](Cc1ccccc1)C(=O)C(=O)NCCc1ccccc1` registered an IC50 of 7.41 µM.

As to `COc1ccc(CCNC(=O)C(=O)[C@H](Cc2ccccc2)NC(=O)c2[nH]c(=O)ccc2C)cc1`, the IC50 was 6.19 µM.

The compound `COc1ccc(CNC(=O)C(=O)[C@H](Cc2ccccc2)NC(=O)c2[nH]c(=O)ccc2C)cc1` displayed an IC50 of 6.19 µM.

Regarding `Cc1ccc(=O)[nH]c1C(=O)N[C@@H](Cc1ccccc1)C(=O)C(=O)NCCc1ccccn1`, the half-inhibitory concentration (IC50) was determined as 34 µM.

In the case of `Cc1ccc(=O)[nH]c1C(=O)N[C@@H](Cc1ccccc1)C(=O)C(N)=O`, the 50% inhibitory concentration (IC50) is 2.81 µM.

`COc1ccc(CNC(=O)C(=O)[C@H](Cc2ccccc2)NC(=O)c2[nH]c(=O)ccc2C)cc1OC` registered a half-maximal inhibitory concentration (IC50) of 35.3 µM.

The compound `Cc1ccc(=O)[nH]c1C(=O)N[C@@H](Cc1ccccc1)C(=O)C(=O)NCc1ccccn1` returned an IC50 of 84.8 µM.

What is called IC50 is the point on the concentration scale where inhibition reaches its midpoint. A higher IC50 goes with weaker potency in that assay.

Source of the values: ChEMBL document CHEMBL1138543, “Design and synthesis of calpain inhibitory 6-pyridone 2-carboxamide derivatives” (Eur J Med Chem, 2009).
